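Test compounds were applied to cells in 96-well plates for 48 hours at 5 doses. At the GI50, growth is halved.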 Activity calls are given as the source filed them. Rule as the data show it: active = GI50 up to about 1.1 µM and inactive = higher.
How the values were obtained:
Experiment in all cases: NCI tumour cell line growth inhibition, 48 h
MDA-MB-231 = tested on: MDA-MB-231
Malme-3M = tested on: Malme-3M
T47D = tested on: T47D
U-251 = tested on: U-251
DU-145 = tested on: DU-145
UACC-257 = tested on: UACC-257
SK-MEL-28 = tested on: SK-MEL-28
TK-10 = tested on: TK-10
MOLT-4 = tested on: MOLT-4
Hs-578T = tested on: Hs-578T
SK-MEL-5 = tested on: SK-MEL-5
BT-549 = tested on: BT-549
UO-31 = tested on: UO-31
OVCAR-3 = tested on: OVCAR-3
UACC-62 = tested on: UACC-62
SF-295 = tested on: SF-295
NCI-H226 = tested on: NCI-H226
SN12C = tested on: SN12C
MCF7 = tested on: MCF7
RXF 393 = tested on: RXF 393
COLO 205 = tested on: COLO 205
HCT-116 = tested on: HCT-116
KM12 = tested on: KM12
HT-29 = tested on: HT-29
OVCAR-5 = tested on: OVCAR-5
SW-620 = tested on: SW-620
SNB-75 = tested on: SNB-75
IGROV-1 = tested on: IGROV-1
PC-3 = tested on: PC-3
SNB-19 = tested on: SNB-19
HOP-62 = tested on: HOP-62
HOP-92 = tested on: HOP-92
M14 = tested on: M14
K562 = tested on: K562
NCI-H460 = tested on: NCI-H460
OVCAR-4 = tested on: OVCAR-4
CCRF-CEM = tested on: CCRF-CEM
NCI-H23 = tested on: NCI-H23
HCT-15 = tested on: HCT-15
HCC 2998 = tested on: HCC 2998
CAKI-1 = tested on: CAKI-1
LOX IMVI = tested on: LOX IMVI
SR = tested on: SR
SK-MEL-2 = tested on: SK-MEL-2
OVCAR-8 = tested on: OVCAR-8
NCI/ADR-RES = tested on: NCI/ADR-RES
SK-OV-3 = tested on: SK-OV-3
MDA-MB-435 = tested on: MDA-MB-435
A498 = tested on: A498
MDA-N = tested on: MDA-N
RPMI-8226 = tested on: RPMI-8226
HL-60 = tested on: HL-60
A549 = tested on: A549
ACHN = tested on: ACHN
SF-539 = tested on: SF-539
EKVX = tested on: EKVX
SF-268 = tested on: SF-268
786-0 = tested on: 786-0

For `OC[C@H]1NC[C@@H](O)[C@@H](O)[C@H]1O`, the GI50 (MDA-MB-231) was > 100 µM (inactive), the GI50 (Malme-3M) was > 100 µM (inactive) and the GI50 (T47D) was > 100 µM (inactive). The GI50 (U-251) was > 100 µM (inactive), the GI50 (DU-145) was > 10 µM (inactive) and the GI50 (UACC-257) was > 100 µM (inactive). For the same compound, the GI50 (SK-MEL-28) was > 10 µM (inactive), the GI50 (TK-10) was > 100 µM (inactive) and the GI50 (MOLT-4) was > 100 µM (inactive). For the same compound, the GI50 (Hs-578T) was > 100 µM (inactive), the GI50 (SK-MEL-5) was > 100 µM (inactive) and the GI50 (BT-549) was > 100 µM (inactive). The GI50 (UO-31) was > 100 µM (inactive), the GI50 (OVCAR-3) was > 100 µM (inactive) and the GI50 (UACC-62) was > 100 µM (inactive). For the same compound, the GI50 (SF-295) was > 100 µM (inactive), the GI50 (NCI-H226) was > 100 µM (inactive) and the GI50 (SN12C) was > 100 µM (inactive). For the same compound, the GI50 (MCF7) was > 100 µM (inactive), the GI50 (RXF 393) was > 100 µM (inactive) and the GI50 (COLO 205) was > 100 µM (inactive). For the same compound, the GI50 (HCT-116) was > 100 µM (inactive), the GI50 (KM12) was > 100 µM (inactive) and the GI50 (HT-29) was > 100 µM (inactive). The GI50 (OVCAR-5) was > 100 µM (inactive), the GI50 (SW-620) was > 100 µM (inactive) and the GI50 (SNB-75) was 9.29 µM (inactive). For the same compound, the GI50 (IGROV-1) was > 100 µM (inactive), the GI50 (PC-3) was > 100 µM (inactive) and the GI50 (SNB-19) was > 100 µM (inactive). For the same compound, the GI50 (HOP-62) was > 100 µM (inactive), the GI50 (HOP-92) was > 100 µM (inactive) and the GI50 (M14) was > 100 µM (inactive). The GI50 (K562) was > 100 µM (inactive), the GI50 (NCI-H460) was > 100 µM (inactive) and the GI50 (OVCAR-4) was > 100 µM (inactive). The GI50 (CCRF-CEM) was > 100 µM (inactive), the GI50 (NCI-H23) was > 100 µM (inactive) and the GI50 (HCT-15) was greater than 100 µM. The GI50 (HCC 2998) was > 100 µM (inactive), the GI50 (CAKI-1) was > 100 µM (inactive) and the GI50 (LOX IMVI) was > 100 µM (inactive). For the same compound, the GI50 (SR) was > 100 µM (inactive), the GI50 (SK-MEL-2) was > 100 µM (inactive) and the GI50 (OVCAR-8) was > 100 µM (inactive). The GI50 (NCI/ADR-RES) was > 100 µM (inactive), the GI50 (SK-OV-3) was > 100 µM (inactive) and the GI50 (MDA-MB-435) was > 100 µM (inactive). The GI50 (A498) was > 100 µM (inactive), the GI50 (MDA-N) was > 100 µM (inactive) and the GI50 (RPMI-8226) was > 100 µM (inactive).
With `Cc1cc2nc(N3C(=O)/C(=C/c4ccccc4S)N=C3c3ccccc3)sc2cc1C` the GI50 (MDA-MB-231) was 18.5 µM (inactive), the GI50 (T47D) was 54.1 µM (inactive) and the GI50 (U-251) was 31.5 µM (inactive). For the same compound, the GI50 (DU-145) was 58.9 µM (inactive), the GI50 (UACC-257) was 23.3 µM (inactive) and the GI50 (SK-MEL-28) was 54.2 µM (inactive). For the same compound, the GI50 (TK-10) was 58.1 µM (inactive), the GI50 (MOLT-4) was 15.4 µM (inactive) and the GI50 (Hs-578T) was 39.2 µM (inactive). For the same compound, the GI50 (SK-MEL-5) was 29 µM (inactive), the GI50 (HL-60) was 30.1 µM (inactive) and the GI50 (BT-549) was 28.6 µM (inactive). The GI50 (UO-31) was 26.1 µM (inactive), the GI50 (A549) was 36.6 µM (inactive) and the GI50 (OVCAR-3) was 49.3 µM (inactive). For the same compound, the GI50 (UACC-62) was 32 µM (inactive), the GI50 (SF-295) was 27.4 µM (inactive) and the GI50 (SN12C) was 25.8 µM (inactive). For the same compound, the GI50 (MCF7) was 20 µM (inactive), the GI50 (RXF 393) was 29.3 µM (inactive) and the GI50 (COLO 205) was 30.6 µM (inactive). The GI50 (HCT-116) was 18.3 µM (inactive), the GI50 (KM12) was 34 µM (inactive) and the GI50 (ACHN) was 32.7 µM (inactive). The GI50 (HT-29) was 21 µM (inactive), the GI50 (OVCAR-5) was 26.5 µM (inactive) and the GI50 (SW-620) was 37.5 µM (inactive). The GI50 (SNB-75) was 32.6 µM (inactive), the GI50 (IGROV-1) was 18.8 µM (inactive) and the GI50 (PC-3) was 18.5 µM (inactive). The GI50 (SF-539) was 56.6 µM (inactive), the GI50 (SNB-19) was 55.8 µM (inactive) and the GI50 (HOP-62) was 88.1 µM (inactive). For the same compound, the GI50 (HOP-92) was 22.4 µM (inactive), the GI50 (M14) was 34 µM (inactive) and the GI50 (K562) was 29.3 µM (inactive). For the same compound, the GI50 (NCI-H460) was 26.5 µM (inactive), the GI50 (OVCAR-4) was 43.1 µM (inactive) and the GI50 (CCRF-CEM) was 18.8 µM (inactive). For the same compound, the GI50 (EKVX) was 27 µM (inactive), the GI50 (HCT-15) was 32.7 µM and the GI50 (SF-268) was 40.8 µM (inactive). For the same compound, the GI50 (HCC 2998) was 31.8 µM (inactive), the GI50 (CAKI-1) was 59.7 µM (inactive) and the GI50 (LOX IMVI) was 29.2 µM (inactive). The GI50 (SR) was 33.2 µM (inactive), the GI50 (SK-MEL-2) was 18.2 µM (inactive) and the GI50 (OVCAR-8) was 46.5 µM (inactive). The GI50 (NCI/ADR-RES) was 26.7 µM (inactive), the GI50 (SK-OV-3) was 99.5 µM (inactive) and the GI50 (MDA-MB-435) was 22.1 µM (inactive). For the same compound, the GI50 (A498) was 21.7 µM (inactive), the GI50 (MDA-N) was 11.6 µM (inactive) and the GI50 (786-0) was 18.7 µM (inactive). The GI50 (RPMI-8226) was 19.2 µM (inactive).

Reference: ChEMBL document CHEMBL1201862, “PubChem BioAssay data set” (2004)
